Test results reported in patent publication US10208037B2, “Toll-like receptor-7 and -8 modulatory 1H imidazoquinoline derived compounds” (The University of Kansas, priority 2011, dated 2019).

Legend:
Format in all cases: cell-based
TLR8 [1] = molecular target: T1, TLR8 (Homo sapiens, UniProt Q9NR97); experiment: TLR8 reporter gene assay, antagonism (CL075 as agonist)
T1 construct: expressed in transfected cells; host or cells: HEK293 (HEK-Blue-8 cells)
T1 sequence (Q9NR97 27-1041): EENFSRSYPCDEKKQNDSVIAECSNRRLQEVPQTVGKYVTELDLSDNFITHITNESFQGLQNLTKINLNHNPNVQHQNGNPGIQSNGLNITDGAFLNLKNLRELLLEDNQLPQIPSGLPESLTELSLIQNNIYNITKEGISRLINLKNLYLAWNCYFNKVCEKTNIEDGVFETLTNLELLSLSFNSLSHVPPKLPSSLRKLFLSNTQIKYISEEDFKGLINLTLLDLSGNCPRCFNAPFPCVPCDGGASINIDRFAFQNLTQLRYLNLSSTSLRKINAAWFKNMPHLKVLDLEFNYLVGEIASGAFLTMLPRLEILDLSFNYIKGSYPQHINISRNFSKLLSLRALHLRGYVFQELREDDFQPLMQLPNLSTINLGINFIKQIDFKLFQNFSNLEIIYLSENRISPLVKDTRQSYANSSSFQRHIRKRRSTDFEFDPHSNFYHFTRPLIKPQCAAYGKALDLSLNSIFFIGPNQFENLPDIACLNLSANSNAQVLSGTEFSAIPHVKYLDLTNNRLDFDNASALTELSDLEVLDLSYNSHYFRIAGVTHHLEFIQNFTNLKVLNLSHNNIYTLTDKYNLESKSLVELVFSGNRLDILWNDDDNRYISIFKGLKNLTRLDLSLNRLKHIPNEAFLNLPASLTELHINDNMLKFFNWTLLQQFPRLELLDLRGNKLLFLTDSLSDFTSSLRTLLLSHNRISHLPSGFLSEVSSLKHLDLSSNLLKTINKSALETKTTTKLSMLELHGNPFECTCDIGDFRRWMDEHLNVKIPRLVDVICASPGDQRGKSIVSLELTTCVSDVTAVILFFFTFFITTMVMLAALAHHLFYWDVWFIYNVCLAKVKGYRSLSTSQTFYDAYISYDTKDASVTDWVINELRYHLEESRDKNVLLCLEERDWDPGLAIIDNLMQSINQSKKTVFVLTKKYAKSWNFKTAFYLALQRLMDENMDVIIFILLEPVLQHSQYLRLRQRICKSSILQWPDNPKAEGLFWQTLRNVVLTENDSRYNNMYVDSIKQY
From the text: (§1) The induction of NF-κB was quantified using HEK-Blue-3, HEK-Blue-7 and HEK-Blue-8 cells as previously described by us.^8,24,51 HEK293 cells were stably transfected with human TLR3 (or human TLR7 or human TLR8), MD2, and secreted alkaline phosphatase (sAP), and were maintained in HEK-Blue™ Selection medium containing zeocin and normocin. Stable expression of secreted alkaline phosphatase (sAP) under control of NF-κB/AP-1 promoters is inducible by the TLR3 (or TLR7 or TLR8) agonists, and extracellular sAP in the supernatant is proportional to NF-κB induction. HEK-Blue cells were incubated at a density of ˜10^5 cells/ml in a volume of 80 μl/well, in 384-well, flat-bottomed, cell culture-treated microtiter plates until confluency was achieved, and subsequently graded concentrations of stimuli. sAP was assayed spectrophotometrically using an alkaline phosphatase-specific chromogen (present in HEK-detection medium as supplied by the vendor) at 620 nm.
(§2) Antagonism assays were done as described by us earlier^73 using the following agonists at a constant concentration: TLR3 Poly(I:C) (10 ng/mL); TLR7: gardiquimod (1 μg/mL); TLR8: CL075 (1 μg/mL) mixed with graded concentrations of the test compounds.

TLR7 [2] = molecular target: T2, TLR7 (Homo sapiens, UniProt Q9NYK1); experiment: TLR7 reporter gene assay, antagonism (gardiquimod as agonist)
T2 construct: expressed in transfected cells; host or cells: HEK293 (HEK-Blue-7 cells)
T2 sequence (Q9NYK1 27-1049): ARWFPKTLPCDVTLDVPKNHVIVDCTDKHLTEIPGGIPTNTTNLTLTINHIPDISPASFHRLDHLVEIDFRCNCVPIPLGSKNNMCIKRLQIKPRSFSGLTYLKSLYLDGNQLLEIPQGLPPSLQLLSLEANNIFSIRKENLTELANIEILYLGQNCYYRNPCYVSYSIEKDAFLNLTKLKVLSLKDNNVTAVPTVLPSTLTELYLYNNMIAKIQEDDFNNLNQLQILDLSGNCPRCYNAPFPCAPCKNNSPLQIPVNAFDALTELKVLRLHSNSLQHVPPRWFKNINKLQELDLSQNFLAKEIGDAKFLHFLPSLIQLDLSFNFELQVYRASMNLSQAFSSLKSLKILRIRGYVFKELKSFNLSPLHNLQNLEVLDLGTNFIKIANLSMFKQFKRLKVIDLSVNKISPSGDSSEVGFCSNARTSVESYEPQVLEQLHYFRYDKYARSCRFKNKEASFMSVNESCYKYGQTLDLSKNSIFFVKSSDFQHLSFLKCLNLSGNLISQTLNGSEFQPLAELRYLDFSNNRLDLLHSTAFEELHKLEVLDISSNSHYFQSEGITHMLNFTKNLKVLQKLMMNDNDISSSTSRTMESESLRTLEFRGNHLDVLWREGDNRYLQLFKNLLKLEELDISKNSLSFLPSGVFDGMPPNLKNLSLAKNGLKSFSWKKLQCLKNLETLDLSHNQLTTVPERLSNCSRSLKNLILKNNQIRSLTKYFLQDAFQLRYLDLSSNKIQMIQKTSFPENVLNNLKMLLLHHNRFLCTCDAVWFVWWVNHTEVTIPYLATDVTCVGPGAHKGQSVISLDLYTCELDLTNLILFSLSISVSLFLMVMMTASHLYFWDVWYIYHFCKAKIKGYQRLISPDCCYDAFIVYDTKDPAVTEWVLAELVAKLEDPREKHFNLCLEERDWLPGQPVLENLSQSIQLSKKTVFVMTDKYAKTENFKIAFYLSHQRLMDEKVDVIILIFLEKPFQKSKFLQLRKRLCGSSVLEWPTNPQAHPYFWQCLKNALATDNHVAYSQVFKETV
From the text: as §1, §2

[3] = system: TLR7 and TLR8-induced cytokine and chemokine release; experiment: Inhibition of TLR7- and TLR8-mediated cytokine and chemokine production in human PBMCs; settings: hPBMCs
Description: FIGS. 22A-[…] illustrate inhibition of TLR7-mediated (FIGS. 22A-22D) and TLR8-mediated (FIGS. 22E-[…]) proinflammatory cytokine production in human peripheral blood mononuclear cells by chloroquine or 47a. Proinflammatory cytokines were assayed by cytokine bead array methods after incubation of hPBMCs with graded concentrations of the test compound for 12 h in the presence of 10 μg/ml of either CL075 (TLR8 agonist) or gardiquimod (TLR7 agonist). FIGS. 23A-23D illustrate inhibition of TLR7-mediated (FIGS. 23A-23B) and TLR8-mediated (FIGS. 23C-3D) chemokine production in human peripheral blood mononuclear cells by chloroquine or 47a. Chemokines were assayed by cytokine bead array methods after incubation of hPBMCs with graded concentrations of the test compound for 12 h in the presence of 10 μg/ml of either CL075 (TLR8 agonist) or gardiquimod (TLR7 agonist). Aliquots (10^6 cells in 100 μL) of hPBMCs isolated from blood obtained from healthy human donors after informed consent by conventional Ficoll-Hypaque gradient centrifugation were stimulated for 12 h with graded concentrations of test compounds. The supernatant was isolated by centrifugation, diluted 1:20, and cytokines and chemokines were assayed in triplicate using analyte-specific cytokine/chemokine bead array assays as reported by us previously.^74

TLR7 [4] = molecular target: T2, TLR7; experiment: Schild plot analysis of inhibition of TLR7-induced activation
Description: (§3) Experiments were performed in checker-board format, using a liquid handler, in 384-well plates which permitted the concentrations of both agonist and antagonist to be varied simultaneously along the two axes of the plate. Either imidazoquinoline (TLR7-specific agonist) or CL075 (TLR8-specific agonist) was used at a starting concentration of 20 μg/mL, and were two-fold diluted serially (along the rows). Next, 47a or chloroquine was two-fold diluted serially in HEK detection medium (along columns). Reporter cells were then added, incubated, and NF-κB activation measured as described in the text. A and A′ (Y-axis) are defined respectively as the EC50 value in the absence of antagonist, and the EC50 values in the presence of varying concentrations of antagonist.

TLR8 [5] = molecular target: T1, TLR8; experiment: Schild plot analysis of inhibition of TLR8-induced activation
Description: as §3

Nc1nc2ccccc2c2c1nc(CCCc1nc3c(N)nc4ccccc4c3n1Cc1ccccc1)n2Cc1ccccc1 [Compound 47a, 2,2′-(propane-1,3-diyl)bis(1-benzyl-1H-imidazo[4,5-c]quinolin-4-amine)]
TLR8 antagonistic activity (in words) (TLR8 [1]): potent antagonistic activity | IC50 (TLR8 [1]; agonist CL075 1 μg/mL, ND = not detected): 3.2 µM | TLR7 antagonistic activity (in words) (TLR7 [2]): potent antagonistic activity | IC50 (TLR7 [2]; agonist gardiquimod 1 μg/mL, ND = not detected): 3.1 µM | IC50 ([3]; Homo sapiens, PBMC, 12 h, 10 μg/ml CL075 or gardiquimod): 0.05 to 0.3 µM | Inhibition of TNF-α and IL-1β production (in words) [3]: potently inhibits | Schild plot slope, TLR7 inhibition (TLR7 [4]): 1.12 | Schild plot slope, TLR8 inhibition (TLR8 [5]): 0.51
